Values of other authors, collected in US6375990B1, “Method and devices for transdermal delivery of lithium” (Emory University, priority 1997, dated 2002).

Key:
[1] = patients who do not respond to antidepressant monotherapy
[2] = not given; remark: listed apart in the source

final volume of distribution (Vd) ([2]; approximates total body water): 0.7 to 0.9 L/kg
time to maximal plasma Li+ concentration (Tmax) ([2]; immediate release formulations, following an oral dose): 1 to 4 h
binding to blood proteins ([2]; in vivo): does not bind to blood proteins
biotransformation / metabolic conversion ([2]; in vivo): not biotransformed
elimination through sweat, saliva, and feces ([2]; in vivo): less than 5 % of an oral dose
excretion through the kidneys ([2]; in vivo): > 90%
filtered load reabsorbed in the renal proximal tubules ([2]; in vivo): Eighty
half-life ([2]; in vivo): 18 to 36 h
absorption from the gastrointestinal tract ([2]; oral administration): readily and nearly completely absorbed
Compound: [Li+] [Li^+, Lithium]
plasma concentration associated with life-threatening intoxication (plasma): exceeding 3.5 mEq/L
serum concentration above which adverse effects increase greatly (serum): exceed 1.5 mEq/L
antidepressant non-responders converted to responders [1]: approximately 50 % of patients
